We go through 29 compounds from the RepoRT retention time repository.

A short description of the data set: Waters ACQUITY UPLC HSS T3, 0.4 mL/min; A: water + 0.1% formic acid; B: acetonitrile + 0.1% formic acid; gradient (min/%B) 0/5 1.5/5 12/95 14/95 14.01/100 17/100. The settings on record: stereoisomer not certain.
On to `CC1=CC(=O)CC(C)(C)C1(O)CCC(C)OC1OC(COC2OCC(O)(CO)C2O)C(O)C(O)C1O` (centres undefined), for which the LC retention time is 4.44 min.
Consider `CCCCCCCCCCCCCCCCCCOC(=O)C(O)(CC(=O)O)CC(=O)O`, for which the LC retention time stood at 10.5 min.
Consider `CCCCCCCCCCCCCCCCCCCCCCCCC(=O)NCC(=O)O`, for which the LC retention time came to 9.77 min.
For `CC1(C)OC2(C)CC(O)C1CC2OC1OC(CO)C(O)C(O)C1O` (centres undefined), the LC retention time is 3.99 min.
With `CNC(CCC(=O)O)C(=O)O` (centres undefined), the LC retention time is 0.912 min.
With `CCCCCCC=CC=CCCCCCCCC(=O)OC(COC(=O)CCCCCCCCC(C)C)COP(=O)(O)OCC(O)CO` (centres undefined) the figure was 12.1 min; with `O=C(O)CCNCC(=O)O`, 0.786 min; with `CC1=CC(=O)C2(C(C)C)C(=O)C3=C(C(O)C4OC(=O)C35CCCC(C)(C)C45)C12` (centres undefined), 10.6 min.
On to `CCCCCCC=CCCCCCCCC(=O)OC(CO)COP(=O)(O)OCCN` (centres undefined), for which the LC retention time amounted to 4.91 min.
Turning to `CCO[SiH](CCCSCCC[SiH](OCC)OCC)OCC`, the LC retention time is 1.02 min.
As for `CCCCCCOC(=O)CC(C)S` (centres undefined), the LC retention time worked out at 0.838 min.
Consider `CCCCN(CCCN(CCCN(CCCN)CCCN)CCCN(CCCN)CCCN)CCCN(CCCN(CCCN)CCCN)CCCN(CCCN)CCCN`, for which the LC retention time is 0.706 min.
Next, `CCCCCC(C)S` (centres undefined): 1.3 min.
Take `CCC(C(=O)CC(C)C1=C(O)C(=O)C2C3CCC4CC(OC5OC(C(=O)O)C(O)C(O)C5O)CCC4(C)C3CCC12C)C(C)C` (centres undefined): the LC retention time is 11 min.
With `CSCCC(N)C(=O)NC(CCCN=C(N)N)C(=O)O` (centres undefined), the LC retention time turned out to be 3.75 min.
Next, `CC(O)C1CCC2C3CCC4=CC(=O)CCC4(C)C3CCC12C` (centres undefined): 11.8 min; `C=CCC=CCC=CCCCCCCCC(C(=O)OC)C(=O)C(=CC(=O)OC)OC` (centres undefined): 5.18 min; `Cc1c(C)c(C(=O)C(C)O)n2c1CCC2` (centres undefined): 4.98 min.
Next, `C[N+](C)(C)CCCC(=O)[O-]`: 0.772 min; `NCCCCC(=O)O`: 1.02 min; `COC1CCC(=O)N1` (centres undefined): 0.851 min.
Consider `CN1CC(=O)NC1=N`, for which the LC retention time amounted to 0.794 min.
With `CC(C)=CCCC(C)(OC1OC(CO)C(O)C(O)C1O)C1CCC2(C)C1C(O)CC1C3(C)CCC(OC4OC(CO)C(O)C(O)C4O)C(C)(C)C3CCC12C` (centres undefined) the figure was 9.82 min.
With `CC1(O)CCC(C(C)(C)OC2OC(CO)C(O)C(O)C2O)CC1O` (centres undefined) the figure was 5.08 min; with `CC(C)CC(N)C(=O)NC(CCC(=O)O)C(=O)O` (centres undefined), 1.05 min; with `NCCCCCCCCCCCC(=O)O`, 6.54 min.
For `CCCCCC(O)C=CC=CCC=CCC=CCCCC(=O)NCCS(=O)(=O)O` (centres undefined), the LC retention time was 4.09 min.
With `Cc1cc(O)cc(O)c1C(=O)OC1CC2(C)C3CC(C)(C)CC3C=C(C=O)C12` (centres undefined), the LC retention time amounted to 10.6 min.
Consider `CC1(C)C(O)CC(O)C23C(=O)OC4OCC(=CCC12)C43` (centres undefined), for which the LC retention time came out at 6.31 min.
